The supplement of paper PMC10307832

Legend:
Test in all cases: relative viability (nuclei count vs DMSO), 5 days (fraction); higher = more cells survive
[1] = compound: Cc1cc([C@@H](C)Nc2ccccc2C(=O)O)c2nc(N3CCOCC3)cc(=O)n2c1 [AZD6482] + CC(=O)c1c(C)c2cnc(Nc3ccc(N4CCNCC4)cn3)nc2n(C2CCCC2)c1=O [Palbociclib] (partner 0.5 µM)
Summary of the method: (§1)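 Dosing by pin tool came one day after lung cancer cell lines were seeded in 1536-well plates, using either one drug or a fixed anchor-drug dose plus five library-drug doses (not always all listed) in √10 steps. After 5 days, nuclei were counted on 4× images. Relative viability is treated-well nuclei count divided by vehicle-well nuclei count, and values are medians of duplicate plates.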

[2] = compound: Cc1cc([C@@H](C)Nc2ccccc2C(=O)O)c2nc(N3CCOCC3)cc(=O)n2c1 [AZD6482] + NC(=O)Nc1cc(-c2cccc(F)c2)sc1C(=O)N[C@H]1CCCNC1 [AZD7762] (partner 0.2 µM)
Summary of the method: as §1

[3] = compound: COc1cc2nc(N3CCCN(C)CC3)nc(NC3CCN(Cc4ccccc4)CC3)c2cc1OC + Cc1nc(NC(=O)N2CCC[C@H]2C(N)=O)sc1-c1ccnc(C(C)(C)C(F)(F)F)c1 [Alpelisib] (partner 2 µM)
Summary of the method: as §1

[4] = compound: Cc1cc([C@@H](C)Nc2ccccc2C(=O)O)c2nc(N3CCOCC3)cc(=O)n2c1 [AZD6482] + CC(C)C[C@H](NC(=O)[C@H](Cc1ccccc1)NC(=O)c1cnccn1)B(O)O [Bortezomib] (partner 0.002 µM)
Summary of the method: as §1

Cell Line	relative viability ([1]; first compound 0.08 µM)	relative viability ([1]; first compound 0.253 µM)	relative viability ([1]; first compound 0.8 µM)	relative viability ([1]; first compound 2.53 µM)	relative viability ([1]; first compound 8 µM)	relative viability ([2]; first compound 0.08 µM)	relative viability ([2]; first compound 0.253 µM)	relative viability ([2]; first compound 0.8 µM)	relative viability ([2]; first compound 2.53 µM)	relative viability ([2]; first compound 8 µM)	relative viability ([3]; first compound 0.2 µM)	relative viability ([3]; first compound 0.6325 µM)	relative viability ([3]; first compound 2 µM)	relative viability ([3]; first compound 6.325 µM)	relative viability ([4]; first compound 0.08 µM)	relative viability ([4]; first compound 0.253 µM)	relative viability ([4]; first compound 0.8 µM)	relative viability ([4]; first compound 2.53 µM)	relative viability ([4]; first compound 8 µM)
NCI-H2347	0.35	0.389	0.406	0.394	0.389	0.502	0.464	0.332	0.32	0.373	0.929	1.02	1.03	0.831	0.755	0.681	0.873	0.619	0.496
NCI-H1993	0.503	0.579	0.638	0.495	0.484	0.454	0.734	0.717	0.427	0.55	0.668	0.637	0.692	0.662	0.848	0.94	–	–	0.852
NCI-H322M	0.447	0.486	0.476	0.424	0.39	0.647	0.623	0.587	0.421	0.405	0.741	0.814	0.781	0.68	1.18	1.22	1.13	0.795	0.871
NCI-H838	0.167	0.203	0.204	0.167	0.163	0.936	0.902	0.934	0.78	0.759	1.04	1.14	1.09	0.853	0.629	0.498	0.793	0.602	0.622
HARA	0.182	0.199	0.368	0.247	0.171	0.424	0.338	0.269	0.224	0.516	0.798	0.823	0.858	0.87	0.977	1.08	1.37	–	1.13
NCI-H2087	0.235	0.223	0.209	0.185	0.207	1.35	1.35	1.46	0.887	1.09	1.15	1.2	1.27	1.05	0.904	0.912	0.831	0.661	1.04
NCI-H1437	0.353	0.319	0.36	0.316	0.24	1.16	1.07	1.16	1.03	0.836	0.995	0.971	1.12	0.828	0.466	0.385	0.592	0.484	0.374
NCI-H1792	0.593	0.611	0.648	0.561	0.512	0.516	0.577	0.427	0.262	0.322	0.725	0.74	0.717	0.737	0.856	0.859	0.991	0.677	0.483
NCI-H650	0.364	0.291	0.276	0.237	0.271	1.06	0.918	1.12	0.77	0.619	1.06	0.997	1.18	1	0.895	–	0.927	0.424	0.57
201T	0.351	0.354	0.309	0.326	0.347	0.739	0.669	0.615	0.611	0.565	1.01	0.998	1.05	1.01	1.08	1.08	1.14	0.891	1.11
HCC-44	0.858	0.988	1.04	1.05	1.26	0.897	0.997	1.1	1.11	1.38	0.832	0.748	0.841	0.746	0.799	1.01	0.975	1.04	0.88
H3255	0.324	0.33	0.306	0.339	0.339	0.895	0.83	0.984	0.697	0.692	0.632	0.852	0.86	0.523	0.738	0.896	0.874	0.382	0.559
NCI-H647	0.305	0.293	0.309	0.241	0.195	0.365	0.445	0.495	0.191	0.235	1.12	1.13	1.18	0.448	0.784	–	0.777	0.582	0.771
NCI-H23	0.471	0.421	0.487	0.396	0.325	0.317	0.223	0.236	0.201	0.219	0.623	0.693	0.775	0.675	0.958	0.861	1.29	0.621	0.861
NCI-H460	0.124	0.138	0.269	0.135	0.129	0.618	0.674	0.791	0.459	0.568	0.481	0.483	0.42	0.242	0.957	0.956	1.17	0.685	0.958
EKVX	0.283	0.325	0.342	0.279	0.298	0.564	0.666	0.538	0.478	0.494	0.918	0.833	0.92	0.784	0.815	0.965	0.863	0.789	0.689
EPLC-272H	0.297	0.292	0.328	0.332	0.244	0.531	0.151	0.298	0.197	0.207	0.952	0.904	1.05	0.912	0.706	–	0.973	0.904	0.834

Cell Line	relative viability ([1]; first compound 0.08 µM)	relative viability ([1]; first compound 0.253 µM)	relative viability ([1]; first compound 0.8 µM)	relative viability ([1]; first compound 2.53 µM)	relative viability ([1]; first compound 8 µM)	relative viability ([2]; first compound 0.08 µM)	relative viability ([2]; first compound 0.253 µM)	relative viability ([2]; first compound 0.8 µM)	relative viability ([2]; first compound 2.53 µM)	relative viability ([2]; first compound 8 µM)	relative viability ([3]; first compound 0.2 µM)	relative viability ([3]; first compound 0.6325 µM)	relative viability ([3]; first compound 2 µM)	relative viability ([3]; first compound 6.325 µM)	relative viability ([4]; first compound 0.08 µM)	relative viability ([4]; first compound 0.253 µM)	relative viability ([4]; first compound 0.8 µM)	relative viability ([4]; first compound 2.53 µM)	relative viability ([4]; first compound 8 µM)
NCI-H2126	0.356	0.383	0.351	0.314	0.36	1.02	0.849	1.02	0.795	0.762	0.83	0.734	0.761	0.717	1.12	1.09	1.1	0.851	0.786
LXF-289	0.565	0.605	0.634	0.631	0.55	1.11	1.13	1.26	0.982	0.956	1.04	0.964	1.06	0.986	0.972	1	1.05	0.845	0.947
NCI-H2405	0.378	0.495	0.526	0.455	0.413	0.563	0.658	0.697	0.388	0.374	0.784	0.772	0.835	0.632	0.77	0.895	1.06	0.73	0.661
NCI-H1755	0.425	0.416	0.443	0.444	0.379	0.463	0.417	0.453	0.344	0.311	0.979	0.844	0.916	0.871	0.837	0.962	0.434	0.639	0.74
HCC-78	0.402	0.449	0.4	0.378	0.427	0.671	0.388	0.57	0.327	0.409	0.354	0.364	0.297	0.251	0.42	0.394	0.337	0.203	0.225
LOU-NH91	0.537	0.557	0.552	0.49	0.542	0.695	0.69	0.704	0.519	0.543	0.736	0.755	0.588	0.642	0.453	0.473	0.519	0.475	0.6
NCI-H3122	0.192	0.198	0.168	0.155	0.154	0.956	0.987	1.05	0.696	0.777	0.73	0.803	0.834	0.723	0.87	0.989	1.1	0.803	1.09
HCC-827	0.437	0.504	0.435	0.378	0.229	0.351	0.184	0.162	0.131	0.137	0.906	0.922	0.952	0.891	0.991	1.1	1.09	0.872	0.836
NCI-H1975	0.439	0.558	0.623	0.562	0.421	0.621	0.631	0.676	0.477	0.363	0.718	0.597	0.727	0.616	0.345	0.375	0.384	0.323	0.301
NCI-H1651	0.485	0.493	0.508	0.486	0.496	0.457	0.379	0.456	0.391	0.379	0.921	0.915	1.16	1.1	0.918	0.941	0.905	0.809	0.825
NCI-H441	0.248	0.246	0.215	–	0.182	1.02	1.18	1.36	–	1.19	0.919	–	0.601	0.655	0.617	0.481	0.595	0.357	0.449
LCLC-103H	0.48	0.475	0.47	0.265	0.353	0.626	0.721	0.619	0.579	0.562	1.04	0.648	0.939	0.994	0.969	1.08	0.921	0.742	0.729
LCLC-97TM1	0.167	0.225	0.188	–	0.172	0.344	0.157	0.442	–	0.299	0.241	–	0.243	0.258	0.499	0.38	0.435	–	0.351
NCI-H727	0.63	0.63	0.811	–	0.532	0.684	0.596	0.596	–	0.578	0.633	0.615	0.593	0.328	0.908	0.868	1.06	–	0.887
NCI-H1355	0.294	0.374	0.32	0.279	0.286	0.642	0.755	0.745	0.681	0.65	0.83	0.861	0.856	0.805	1.06	1.06	1.16	0.874	1.03
HOP-62	0.504	0.525	0.486	0.457	0.407	0.577	0.626	0.706	0.526	0.761	0.878	0.932	0.829	0.877	0.795	1.12	0.752	0.939	1.18
NCI-H2085	0.408	0.379	0.336	0.273	0.343	0.522	0.372	0.41	0.289	0.341	1.06	0.972	1	0.799	0.824	0.659	0.766	0.393	0.458
